Where only a bound is given, the exact number is not on record here.

Data on 18 compounds can be found in ChEMBL document CHEMBL5046228 (Eur J Med Chem, 2022).

Data set [1] in a line: Selectivity index, ratio of IC50 Inhibition of wild type EGFR (unknown origin) to IC50 for Inhibition of EGFR T790M/C797S double mutant (unknown origin).
The target in data set [2] is Epidermal growth factor receptor (Homo sapiens, UniProt P00533, EX19DEL). The data set is described as follows: Inhibition of EGFR del19 (unknown origin) using flurogenic substrate in presence of ATP by HTRF assay. Background: TR-FRET usually uses a lanthanide donor and a delayed reading to cut background.
Sequence of Epidermal growth factor receptor (Homo sapiens, UniProt P00533, EX19DEL) (P00533 whole entry, looked up, stated change not applied): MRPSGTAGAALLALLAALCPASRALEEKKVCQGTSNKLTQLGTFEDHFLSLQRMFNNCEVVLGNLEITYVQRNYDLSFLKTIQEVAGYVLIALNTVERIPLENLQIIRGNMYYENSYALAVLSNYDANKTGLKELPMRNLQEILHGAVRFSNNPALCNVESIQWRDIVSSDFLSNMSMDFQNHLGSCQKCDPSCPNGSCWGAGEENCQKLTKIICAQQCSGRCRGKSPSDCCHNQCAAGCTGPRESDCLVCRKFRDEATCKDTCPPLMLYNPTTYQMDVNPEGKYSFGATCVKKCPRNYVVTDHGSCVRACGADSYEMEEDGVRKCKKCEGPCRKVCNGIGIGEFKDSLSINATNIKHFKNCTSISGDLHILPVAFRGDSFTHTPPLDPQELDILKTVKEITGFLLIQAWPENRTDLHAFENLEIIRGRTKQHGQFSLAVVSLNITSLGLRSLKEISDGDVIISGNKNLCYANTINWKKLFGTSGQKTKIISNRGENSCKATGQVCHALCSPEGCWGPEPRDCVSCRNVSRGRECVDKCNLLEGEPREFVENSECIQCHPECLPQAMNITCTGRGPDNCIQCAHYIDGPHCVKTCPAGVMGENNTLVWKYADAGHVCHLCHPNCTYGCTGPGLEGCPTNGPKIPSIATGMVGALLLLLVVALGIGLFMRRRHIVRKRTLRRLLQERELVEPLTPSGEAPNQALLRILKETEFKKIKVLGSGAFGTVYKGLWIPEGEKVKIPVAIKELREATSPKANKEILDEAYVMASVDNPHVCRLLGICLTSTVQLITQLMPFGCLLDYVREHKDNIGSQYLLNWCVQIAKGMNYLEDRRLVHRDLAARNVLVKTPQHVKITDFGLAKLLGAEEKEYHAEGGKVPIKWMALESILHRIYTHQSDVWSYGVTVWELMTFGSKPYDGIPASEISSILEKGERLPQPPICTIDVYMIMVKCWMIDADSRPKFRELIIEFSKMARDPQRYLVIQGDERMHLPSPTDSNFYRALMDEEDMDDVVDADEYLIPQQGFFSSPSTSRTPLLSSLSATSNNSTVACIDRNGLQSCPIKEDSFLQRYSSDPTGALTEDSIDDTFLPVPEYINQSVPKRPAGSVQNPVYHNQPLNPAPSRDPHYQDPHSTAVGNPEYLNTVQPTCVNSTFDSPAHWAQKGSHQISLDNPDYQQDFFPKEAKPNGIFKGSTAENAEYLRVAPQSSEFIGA
For data set [3], the target named is Epidermal growth factor receptor (Homo sapiens, UniProt P00533, C797S/T790M). The data set is described as follows: Inhibition of EGFR T790M/C797S double mutant (unknown origin) using flurogenic substrate in presence of ATP by HTRF assay.
Sequence of Epidermal growth factor receptor (Homo sapiens, UniProt P00533, C797S/T790M) (P00533 25-1210 T790M/C797S limits assumed): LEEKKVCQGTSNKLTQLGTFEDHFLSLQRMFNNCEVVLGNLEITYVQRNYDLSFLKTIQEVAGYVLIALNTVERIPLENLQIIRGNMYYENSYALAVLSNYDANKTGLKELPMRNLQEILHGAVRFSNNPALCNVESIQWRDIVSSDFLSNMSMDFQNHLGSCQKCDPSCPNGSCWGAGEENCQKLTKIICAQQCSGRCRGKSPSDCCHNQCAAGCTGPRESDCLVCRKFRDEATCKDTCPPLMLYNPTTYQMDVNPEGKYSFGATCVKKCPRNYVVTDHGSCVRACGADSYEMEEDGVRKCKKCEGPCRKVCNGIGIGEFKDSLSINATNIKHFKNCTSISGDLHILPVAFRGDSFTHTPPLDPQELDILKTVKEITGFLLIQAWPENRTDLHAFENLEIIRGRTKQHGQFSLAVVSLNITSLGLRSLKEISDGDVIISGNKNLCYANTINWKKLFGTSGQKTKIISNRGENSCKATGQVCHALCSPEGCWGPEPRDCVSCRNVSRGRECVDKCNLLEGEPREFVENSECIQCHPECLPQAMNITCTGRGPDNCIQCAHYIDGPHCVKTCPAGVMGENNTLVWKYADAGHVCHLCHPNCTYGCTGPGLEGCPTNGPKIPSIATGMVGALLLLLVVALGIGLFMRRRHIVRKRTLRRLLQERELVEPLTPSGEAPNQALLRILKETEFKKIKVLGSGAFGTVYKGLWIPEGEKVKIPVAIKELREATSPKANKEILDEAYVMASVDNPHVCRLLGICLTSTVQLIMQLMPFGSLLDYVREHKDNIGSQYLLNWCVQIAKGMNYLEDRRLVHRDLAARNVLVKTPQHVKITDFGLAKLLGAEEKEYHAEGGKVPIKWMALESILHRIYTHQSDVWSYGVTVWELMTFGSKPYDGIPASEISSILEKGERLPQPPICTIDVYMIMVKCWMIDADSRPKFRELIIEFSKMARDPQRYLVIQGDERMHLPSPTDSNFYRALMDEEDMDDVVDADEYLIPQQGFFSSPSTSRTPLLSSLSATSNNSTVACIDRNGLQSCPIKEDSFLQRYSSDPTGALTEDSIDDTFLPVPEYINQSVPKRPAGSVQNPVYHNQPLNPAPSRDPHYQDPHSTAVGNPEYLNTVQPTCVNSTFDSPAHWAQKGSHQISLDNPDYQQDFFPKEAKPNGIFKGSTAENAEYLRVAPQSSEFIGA
Data set [4] deals with Epidermal growth factor receptor (Homo sapiens, UniProt P00533). The data set is described as follows: Inhibition of wild type EGFR (unknown origin) using flurogenic substrate in presence of ATP by HTRF assay.
Sequence of Epidermal growth factor receptor (Homo sapiens, UniProt P00533) (P00533 whole entry): as the sequence (P00533 whole entry, looked up, stated change not applied) above
Data set [5] relates to HCC827. In words: Antiproliferative activity against human HCC827 cells expressing EGFR del119 mutant assessed as inhibition in cell viability after 72 hrs by CCK8 assay. Type of data set: functional, cell-based. The settings on record: HCC827, 72 h. In general terms: Formazan colour is commonly taken as a measure of viable cells.
In data set [6] the test system is NCI-H1975. In words: Induction of apoptosis in human NCI-H1975 cells assessed as increase in late apoptotic cells at 2.5 uM after 36 hrs by annexin-V-FITC/PI staining based flow cytometric analysis (reference value: 3.85%). It counts as functional.
For data set [7], the system named is NCI-H1299. In words: Induction of apoptosis in human NCI-H1299 cells assessed as increase in late apoptotic cells at 2.5 uM after 36 hrs by annexin-V-FITC/PI staining based flow cytometric analysis (reference value: 4.39%). Type of data set: functional. On the technique in general: Flow cytometry measures light scatter and fluorescence of single cells or particles in a stream.

The subject of data set [8] is NCI-H1975. The data set is described as follows: Induction of apoptosis in human NCI-H1975 cells assessed as increase in necrotic cells at 2.5 uM after 36 hrs by annexin-V-FITC/PI staining based flow cytometric analysis (reference value: 0.35%). It counts as functional.
Data set [9] has as its system NCI-H1299. In words: Induction of apoptosis in human NCI-H1299 cells assessed as increase in early apoptotic cells at 2.5 uM after 36 hrs by annexin-V-FITC/PI staining based flow cytometric analysis (reference value: 0.79%). Type of data set: functional.
In data set [10] the test system is NCI-H1299. The data set is described as follows: Induction of cell cycle arrest in human NCI-H1299 cells assessed as accumulation at G0/G1 phase at 2.5 uM after 36 hrs by PI staining based flow cytometry analysis (reference value: 70.2%). Type of data set: functional.
Data set [11] has as its system NCI-H1299. In words: Induction of apoptosis in human NCI-H1299 cells assessed as increase in necrotic cells at 2.5 uM after 36 hrs by annexin-V-FITC/PI staining based flow cytometric analysis (reference value: 0.75%). Type of data set: functional.
Data set [12] has as its system NCI-H1299. The data set is described as follows: Induction of cell cycle arrest in human NCI-H1299 cells assessed as accumulation at G2/M phase at 2.5 uM after 36 hrs by PI staining based flow cytometry analysis (reference value: 5.6%). Type of data set: functional.
The subject of data set [13] is NCI-H1299. The data set is described as follows: Induction of cell cycle arrest in human NCI-H1299 cells assessed as accumulation at S phase at 2.5 uM after 36 hrs by PI staining based flow cytometry analysis (reference value: 24.8%). Type of data set: functional.
Data set [14] deals with NCI-H1975. In words: Induction of cell cycle arrest in human NCI-H1975 cells assessed as accumulation at G0/G1 phase at 2.5 uM after 36 hrs by PI staining based flow cytometry analysis (reference value: 24.2%). Type of data set: functional.
Data set [15] deals with NCI-H1299. The data set is described as follows: Induction of apoptosis in human NCI-H1299 cells assessed as increase in viable cells at 2.5 uM after 36 hrs by annexin-V-FITC/PI staining based flow cytometric analysis (reference value: 94.1%). It counts as functional.
Data set [16] has as its system NCI-H1299. In words: Antiproliferative activity against human NCI-H1299 cells expressing wild type EGFR assessed as inhibition in cell viability after 72 hrs by CCK8 assay. It counts as functional, cell-based. The following applies: NCI-H1299, 72 h.
Data set [17] concerns A549. The data set is described as follows: Antiproliferative activity against human A549 cells expressing wild type EGFR assessed as inhibition in cell viability after 72 hrs by CCK8 assay. It counts as functional, cell-based. The following applies: A549, 72 h.
The test system of data set [18] is NCI-H1975. The data set is described as follows: Induction of cell cycle arrest in human NCI-H1975 cells assessed as accumulation at G2/M phase at 2.5 uM after 36 hrs by PI staining based flow cytometry analysis (reference value: 43.1%). Type of data set: functional.
Data set [19] relates to NCI-H1975. The data set is described as follows: Induction of cell cycle arrest in human NCI-H1975 cells assessed as accumulation at S phase at 2.5 uM after 36 hrs by PI staining based flow cytometry analysis (reference value: 32.7 %). It counts as functional.
Data set [20] concerns NCI-H1975. In words: Induction of apoptosis in human NCI-H1975 cells assessed as increase in viable cells at 2.5 uM after 36 hrs by annexin-V-FITC/PI staining based flow cytometric analysis (reference value: 94.6%). It counts as functional.
Data set [21] has as its system NCI-H1975. In words: Induction of apoptosis in human NCI-H1975 cells assessed as increase in early apoptotic cells at 2.5 uM after 36 hrs by annexin-V-FITC/PI staining based flow cytometric analysis (reference value: 1.24%). Type of data set: functional.
Data set [22] can be described thus: in vitro. The following applies: human.
Data set [23] deals with NCI-H1975. In words: cells. Type of data set: functional, cell-based. The following applies: Homo sapiens, NCI-H1975, 72 h.
A short description of data set [24]: in vitro. The following applies: human. This is another data set of the same source.

A word on the IC50: it is the point on the concentration scale where inhibition reaches its midpoint. Take `C=CC(=O)Nc1cc(Nc2nccc(Nc3cnn(C)c3)n2)c(OC)cc1N(C)CCN(C)C`: the Ratio IC50 in data set [1] was 23.1. Moreover, the IC50 was 54.3 nM in data set [2], 21.4 nM in [3] and 495 nM in data set [4].

Take `C=CC(=O)Nc1cc(Nc2nccc(Nc3cnn(CC)c3)n2)c(OC)cc1N(C)CCN(C)C`: the Ratio IC50 in data set [1] was 12.5. Moreover, the figures for the IC50 in data set [2], in data set [3] and in data set [4] were 18.7 nM, 8.02 nM and 101 nM, respectively.

With `C=CC(=O)Nc1cc(Nc2nccc(-c3cn(C)c4ccccc34)n2)c(OC)cc1N(C)CCN(C)C` [OSIMERTINIB], the concentration for half-maximal inhibition (IC50) in data set [5] turned out to be 1.73 nM; in data set [16] it was 2840 nM; in data set [17] it was 335 nM. Further, the Activity turned out to be 18.1% in data set [6]; 7.44% in data set [7]; 0.016% in data set [8]; 1.47% in data set [9]; 67.3% in [10]; 0.43% in data set [11]. For the same compound, the Activity in data set [12] was 8.4%; in [13] it was 24.3%; in data set [14] it was 17.1%; in [15], 90.7%; in data set [18], 65.4%; in data set [19], 17.5%. Further, the figures for the Activity in data set [20] and in data set [21] were 41.1% and 40.8%, respectively.

Consider `C=CC(=O)Nc1cc(Nc2nccc(Nc3cn(C)c4ccccc34)n2)c(OC)cc1N(C)CCN(C)CC(=C)C`, for which the Ratio IC50 in [1] stood at 31.4. Moreover, the values for the IC50 in [2], in [3] and in [4] were 64 nM, 5.75 nM and 181 nM, respectively.

Turning to `C=CC(=O)Nc1cc(Nc2nccc(Nc3cn(C)c4ccccc34)n2)c(OC)cc1N(C)CCN(C)C(=O)OC`, the Ratio IC50 in data set [1] came to 235. In addition, the 50% inhibitory concentration (IC50) in data set [2] was 213 nM; in data set [3], 12.3 nM; in data set [4] it was 2910 nM.

Take `C=CC(=O)Nc1cc(Nc2nccc(Nc3ccn(C)n3)n2)c(OC)cc1N(C)CCN(C)C`: in [1], the Ratio IC50 came out at 15.6. The 50% inhibitory concentration (IC50) in data set [2] was 12.6 nM; in data set [3] it was 6.2 nM; in data set [4] it was 96.5 nM.

In the case of `C#CCN(C)CCN(C)c1cc(OC)c(Nc2nccc(Nc3ccn(C)n3)n2)cc1NC(=O)C=C`, in data set [1], the Ratio IC50 came to 5.92. The figures for the IC50 in [2], in data set [3] and in data set [4] were 22.3 nM, 8.58 nM and 50.8 nM, respectively.

Consider `C=CC(=O)Nc1cc(Nc2nccc(Nc3ccn(C)n3)n2)c(OC)cc1N(C)CCN(C)CC(=C)C`, for which the Ratio IC50 in [1] was 8.02. Besides, the values for the concentration for half-maximal inhibition (IC50) in data set [2], in data set [3] and in data set [4] were 625 nM, 397 nM and 3180 nM, respectively.

As for `C=CC(=O)Nc1cc(Nc2nccc(Nc3cn(C)c4ccccc34)n2)c(OC)cc1N(C)CCN(C)Cc1ccc(Br)cc1`, the IC50 is 6460 nM in data set [5]; 29.7 nM in [23]; 143 nM in data set [2]; 8.13 nM in [3]; 2470 nM in [4]; greater than 100000 nM in [16]. Also, the IC50 in [17] is greater than 100000 nM. The selectivity ratio in [22] and in [24] was 2640 throughout. For the same compound, in data set [1], the Ratio IC50 stood at 304.

Consider `C=CC(=O)Nc1cc(Nc2nccc(Nc3cn(C)c4ccccc34)n2)c(OC)cc1N(C)CCN(C)C(=O)C#CC`, for which the Ratio IC50 in data set [1] was greater than 172. Besides, the 50% inhibitory concentration (IC50) in [2] was 949 nM; in data set [3], 58 nM; in data set [4], greater than 10000 nM.

Regarding `C=CC(=O)Nc1cc(Nc2nccc(Nc3cn(C)c4ccccc34)n2)c(OC)cc1N(C)CCN(C)CC(=O)OC`, the IC50 amounted to 346 nM in data set [5]; 8.31 nM in data set [23]; 46.4 nM in data set [2]; 5.75 nM in [3]; 453 nM in [4]; 5300 nM in data set [16]. The 50% inhibitory concentration (IC50) in data set [17] came to 5190 nM. Besides, the results for the selectivity ratio in [22] and in data set [24] were 624 and 637, respectively. In addition, in [1], the Ratio IC50 was 78.8.

On to `C=CCCN(C)CCN(C)c1cc(OC)c(Nc2nccc(Nc3cn(C)c4ccccc34)n2)cc1NC(=O)C=C`, for which the IC50 amounted to 24.7 nM in data set [5]; 2.01 nM in data set [23]; 13.1 nM in data set [2]; 2 nM in data set [3]; 42.7 nM in data set [4]; 1770 nM in [16]. For the same compound, the IC50 in data set [17] came out at 1380 nM. Also, the selectivity ratio in data set [22] amounted to 687; in [24], 881. The Ratio IC50 in data set [1] came to 21.3.

Regarding `C=CC(=O)Nc1cc(Nc2nccc(Nc3cn(C)c4ccccc34)n2)c(OC)cc1N(C)CCN(C)C(=O)C=C`, the Ratio IC50 in data set [1] was greater than 273. Moreover, the half-inhibitory concentration (IC50) is 723 nM in data set [2], 36.6 nM in data set [3] and greater than 10000 nM in data set [4].

Take `C=CC(=O)Nc1cc(Nc2nccc(Nc3cn(C)c4ccccc34)n2)c(OC)cc1N(C)CCN(C)C(=O)c1ccc(Br)cc1`: the IC50 in [5] was 7150 nM; in data set [23], 37.9 nM; in data set [2], 301 nM; in data set [3], 12.5 nM; in [4] it was greater than 10000 nM; in data set [16], greater than 100000 nM. In addition, the IC50 in data set [17] was greater than 100000 nM. In addition, the selectivity ratio in data set [22] and in [24] was 3370 each time. In addition, the Ratio IC50 in data set [1] is greater than 797.

Take `C=CC(=O)Nc1cc(Nc2nccc(Nc3cn(C)nc3C)n2)c(OC)cc1N(C)CCN(C)C`: in data set [1], the Ratio IC50 came to 12.6. Further, the figures for the IC50 in data set [2], in data set [3] and in [4] were 11.6 nM, 5.65 nM and 71.3 nM, respectively.

Take `C=CC(=O)Nc1cc(Nc2nccc(Nc3ccn(C)n3)n2)c(OC)cc1N(C)CCN(C)CC(=O)OC`: the Ratio IC50 in data set [1] was 22.5. Further, the half-maximal inhibitory concentration (IC50) in data set [2] was found to be 106 nM; in data set [3] it was 42.4 nM; in data set [4], 952 nM.

For the compound `C=CC(=O)Nc1cc(Nc2nccc(Nc3ccn(C)n3)n2)c(OC)cc1N(C)CCN(C)C(=O)OC`, in data set [1], the Ratio IC50 came to 9.84. The figures for the IC50 in [2], in data set [3] and in [4] were 288 nM, 502 nM and 4930 nM, respectively.

As for `C=CC(=O)Nc1cc(Nc2nccc(Nc3cn(C)c4ccccc34)n2)c(OC)cc1N(C)CCN(C)Cc1ccccc1`, the IC50 in [5] turned out to be 117 nM; in [23], 4.02 nM; in [16] it was 3980 nM; in [17], 2610 nM.
